Experimental data taken from patent US8039495B2, “Biphenyl carboxylic acids and bioisosteres as glycogen synthase activators” (Hoffman-La Roche Inc., priority 2009, dated 2011).

Tested on: glycogen synthase
Assay: Glycogen Synthase (GS) Assay
Assay type: biochemical
Settings: for EC50: compound concentration needed to give 50% maximum activation; for GS SC200: compound concentration needed to stimulate 200% of the enzyme activity
Experimental: Twelve μL per well of substrate solution containing glycogen (4.32 mg/ml), 2.67 mM UDP-glucose, 21.6 mM phospho(enol)pyruvate and 2.7 mM NADH in 30 mM glycylglycine, pH 7.3 buffer was added into a polystyrene 384-well assay plate (BD Biosciences).
Compound solutions (8 μL/well) at various concentrations (0-300 μM) were added to the assay plate (columns 5-24). Compound solution contains 30 mM glycylglycine, pH 7.3, 40 mM KCl, 20 mM MgCl2, 9.2% DMSO, with (columns 15-24) or without (columns 5-14) 20 mM glucose 6-phosphate.
Enzyme solution (12 μL/well) containing glycogen synthase (16.88 μg/ml), pyruvate kinase (0.27 mg/ml), lactate dehydrogenase (0.27 mg/ml) in 50 mM Tris-HCl, pH 8.0, 27 mM DTT and bovine serum albumin (BSA, 0.2 mg/ml) was added to the assay plate (columns 3-24). As a blank control, enzyme solution without glycogen synthase was added into the top half wells of columns 1-2. To the bottom half wells of columns 1-2 were added a known activator, glucose 6-phosphate (at final concentration 5 mM) in addition to the enzyme solution. The reaction mixture was incubated at room temperature. The assay plate was then read for absorbance at 340 nm on an Envision reader every 3 minutes up to a total of 15 minutes.
The enzyme activity (with or without compound) was calculated by the reaction rate and represented by the optical density change (δOD) per minute. Percent stimulation of glycogen synthase activity by a compound at various concentrations was calculated by the following formula: % stimulation=100*Rs/Rt,
Where Rs is the reaction rate of the enzyme in the presence of compound and Rt is the reaction rate of the enzyme in the absence of compound.
SC200 is defined as the compound concentration that is needed to stimulate 200% of the enzyme activity. EC50 is defined as the compound concentration that is needed to give 50% maximum activation.

Row | SMILES | EC50 [nM] | GS SC200 [µM]
1 | Cc1cc(F)c(F)cc1-c1ccc(OCc2cccc(C(=O)N(C)CC(=O)O)c2)cc1 [Example 4, {[3-(4′,5′-Difluoro-2′-methyl-biphenyl-4-yloxymethyl)-benzoyl]-methyl-amino}-acetic acid] | 80 | 0.01
2 | COc1cc(F)c(F)cc1-c1ccc(OCc2nc(C(=O)N(CC(=O)O)C(C)(C)C)cs2)cc1 [Example 9, {tert-Butyl-[2-(4′,5′-difluoro-2′-methoxy-biphenyl-4-yloxymethyl)-thiazole-4-carbonyl]-amino}-acetic acid] | 110 | 0.01
3 | Cc1cc(F)c(F)cc1-c1ccc(OCc2cccc(C(=O)N3CCC[C@H]3C(=O)O)c2)cc1 [Example 3, (S)-1-[3-(4′,5′-Difluoro-2′-methyl-biphenyl-4-yloxymethyl)-benzoyl]-pyrrolidine-2-carboxylic acid] | 40 | 0.001
4 | O=C(c1cccc(COc2ccc(-c3cc(F)c(F)cc3F)cc2)c1)N1CCC[C@H]1c1nnn[nH]1 [Example 6, [(S)-2-(1H-Tetrazol-5-yl)-pyrrolidin-1-yl]-[3-(2′,4′,5′-trifluoro-biphenyl-4-yloxymethyl)-phenyl]-methanone] | 2100 | 0.59
5 | COc1cc(F)c(F)cc1-c1ccc(OCc2cccc(C(=O)N3CCC[C@H]3C(=O)O)c2)cc1 [Example 2, (S)-1-[3-(4′,5′-Difluoro-2′-methoxy-biphenyl-4-yloxymethyl)-benzoyl]-pyrrolidine-2-carboxylic acid] | 140 | 0.02
6 | COc1cc(F)c(F)cc1-c1ccc(OCc2cccc(C(=O)N(CC(=O)O)C(C)(C)C)c2)cc1 [Example 8, {tert-Butyl-[3-(4′,5′-difluoro-2′-methoxy-biphenyl-4-yloxymethyl)-benzoyl]-amino}-acetic acid] | 200 | 0.01
7 | O=C(O)[C@@H]1CCCN1C(=O)c1cccc(COc2ccc(-c3ccc(F)cc3F)cc2)c1 [Example 1, (S)-1-[3-(2′,4′-Difluoro-biphenyl-4-yloxymethyl)-benzoyl]-pyrrolidine-2-carboxylic acid] | 120 | 0.02
8 | CN(CC(=O)NS(C)(=O)=O)C(=O)c1cccc(COc2ccc(-c3cc(F)c(F)cc3F)cc2)c1 [Example 5, N-(2-Methanesulfonylamino-2-oxo-ethyl)-N-methyl-3-(2′,4′,5′-trifluoro-biphenyl-4-yloxymethyl)-benzamide] | 200 | 0.07
9 | COc1cc(F)c(F)cc1-c1ccc(OCc2cccc(C(=O)N(C)CC(=O)O)c2)cc1 [Example 7, {[3-(4′,5′-Difluoro-2′-methoxy-biphenyl-4-yloxymethyl)-benzoyl]-methyl-amino}-acetic acid] | 100 | 0.02

Second part, led by results:

Row | EC50 [nM] | SMILES | GS SC200 [µM]
10 | 100 | CN(CC(=O)O)C(=O)c1cccc(COc2ccc(-c3cc(F)c(F)cc3F)cc2)c1 [Example 10, {Methyl-[3-(2′,4′,5′-trifluoro-biphenyl-4-yloxymethyl)-benzoyl]-amino}-acetic acid] | 0.04
11 | 690 | O=C(NS(=O)(=O)C1CC1)c1cccc(COc2ccc(-c3cc(F)c(F)cc3F)cc2)c1 [Example 12, Cyclopropanesulfonic acid 3-(2′,4′,5′-trifluoro-biphenyl-4-yloxymethyl)-benzoylamide] | 0.14
12 | 160 | COc1cc(F)c(F)cc1-c1ccc(OCc2cccc(C(=O)N(C)CC(=O)O)c2)cc1F [Example 11, {Methyl-[3-(2,4′,5′-trifluoro-2′-methoxy-biphenyl-4-yloxymethyl)-benzoyl]-amino}-acetic acid] | 0.01
13 | 100 | CN(CC(=O)O)C(=O)c1cccc(COc2ccc(-c3cc(F)c(F)cc3F)cc2F)c1 [Example 14] | 0.01
14 | 220 | COc1cc(F)c(F)cc1-c1ccc(OCc2cccc(C(=O)N3CCC[C@@H]3C(=O)O)c2)cc1 [Example 15, (R)-1-[3-(4′,5′-Difluoro-2′-methoxy-biphenyl-4-yloxymethyl)-benzoyl]-pyrrolidine-2-carboxylic acid] | 0.05
15 | 80 | COc1cc(F)c(F)cc1-c1ccc(OCc2cc(C(=O)N(C)CC(=O)O)ccc2F)cc1 [Example 13, {[3-(4′,5′-Difluoro-2′-methoxy-biphenyl-4-yloxymethyl)-4-fluoro-benzoyl]-methyl-amino}-acetic acid] | 0.004
